This is an account of results in ChEMBL document CHEMBL5154882, “Discovery of 4-Hydroxyquinazoline Derivatives as Small Molecular BET/PARP1 Inhibitors That Induce Defective Homologous Recombination and Lead to Synthetic Lethality for Triple-Negative Breast Cancer Therapy” (J Med Chem, 2022).

One test has as its system MDA-MB-231. The experiment in a line: Antiproliferative activity against human MDA-MB-231 cells assessed as reduction in cell viability incubated for 72 hrs by MTT assay. In kind it is functional, cell-based. The note with it: MDA-MB-231, 72 h. (Tetrazolium assays rely on reduction of a dye to a coloured formazan, in cell work by metabolically active cells.)
The test system of the next test is MDA-MB-468. The experiment in a line: Antiproliferative activity against human MDA-MB-468 cells assessed as reduction in cell viability incubated for 72 hrs by MTT assay. Type of test: functional, cell-based. The note with it: MDA-MB-468, 72 h.
Test [1] addresses Poly [ADP-ribose] polymerase 1 (Homo sapiens, UniProt P09874). Briefly: Inhibition of PARP1 (unknown origin) at 1 uM relative to control.
Test [2] addresses Bromodomain-containing protein 4 (Homo sapiens, UniProt O60885). Briefly: Inhibition of BRD4 (unknown origin) at 1 uM relative to control.

Broadly, the IC50 is the concentration that inhibits the measured activity by half. For orientation: inhibition means the share of the control response that was lost under treatment. The low end stands for little suppression, the high end for strong suppression.

Chain of Poly [ADP-ribose] polymerase 1 (P09874 whole entry): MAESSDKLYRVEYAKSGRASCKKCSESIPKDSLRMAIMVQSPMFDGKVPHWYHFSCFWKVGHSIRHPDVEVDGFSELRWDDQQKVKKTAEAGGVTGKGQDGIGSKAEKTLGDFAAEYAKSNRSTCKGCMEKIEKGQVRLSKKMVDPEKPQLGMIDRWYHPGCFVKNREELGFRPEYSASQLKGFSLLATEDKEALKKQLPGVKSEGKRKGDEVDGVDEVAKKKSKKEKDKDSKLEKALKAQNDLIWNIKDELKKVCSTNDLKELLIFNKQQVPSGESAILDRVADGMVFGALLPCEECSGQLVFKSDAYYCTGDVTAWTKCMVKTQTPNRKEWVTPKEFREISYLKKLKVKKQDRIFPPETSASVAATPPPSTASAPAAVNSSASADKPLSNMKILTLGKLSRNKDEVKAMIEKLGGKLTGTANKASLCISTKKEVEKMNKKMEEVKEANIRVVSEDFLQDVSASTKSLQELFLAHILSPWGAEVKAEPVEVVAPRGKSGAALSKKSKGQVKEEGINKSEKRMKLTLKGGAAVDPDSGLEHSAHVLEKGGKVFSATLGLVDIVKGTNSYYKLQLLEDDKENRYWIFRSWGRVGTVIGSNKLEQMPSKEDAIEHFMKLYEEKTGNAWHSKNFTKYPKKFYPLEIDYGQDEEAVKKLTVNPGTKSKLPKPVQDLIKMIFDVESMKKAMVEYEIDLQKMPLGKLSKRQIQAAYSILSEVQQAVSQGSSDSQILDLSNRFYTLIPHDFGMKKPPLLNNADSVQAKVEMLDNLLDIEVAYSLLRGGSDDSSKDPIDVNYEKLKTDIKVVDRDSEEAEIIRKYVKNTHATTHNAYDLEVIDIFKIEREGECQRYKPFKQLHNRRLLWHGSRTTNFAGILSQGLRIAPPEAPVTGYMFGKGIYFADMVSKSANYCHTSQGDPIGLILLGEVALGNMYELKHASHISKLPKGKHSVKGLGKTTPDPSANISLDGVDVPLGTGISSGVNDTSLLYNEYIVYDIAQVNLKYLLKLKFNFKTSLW

For the molecule `COc1cc(-c2nc3ccc(Cl)cc3c(=O)[nH]2)ccc1Cc1n[nH]c(=O)c2ccccc12`, the IC50 in the test with MDA-MB-231 worked out at 30.6 µM; in the test with MDA-MB-468, 35.6 µM. For the same molecule, the inhibition in test [1] is 37.1%; in test [2], 45.8%.
The corresponding values for `O=c1[nH]c(-c2cc(F)cc(Cc3n[nH]c(=O)c4ccccc34)c2)nc2ccc(Cl)cc12` are 15 µM, 12.3 µM, 78% and 54.5%.
The corresponding values for `COc1cc(-c2nc3ccc(F)cc3c(=O)[nH]2)ccc1Cc1n[nH]c(=O)c2ccccc12` are 26 µM, 31.4 µM, 36.1% and 41.5%.
The matching figures for `O=c1[nH]c(-c2ccc(Cc3n[nH]c(=O)c4ccccc34)cc2)nc2ccc(Cl)cc12`: 17.1 µM, 17 µM, 52.3% and 49.3%.
For `O=c1[nH]c(-c2cccc(Cc3n[nH]c(=O)c4ccccc34)c2)nc2ccc(F)cc12`, the 50% inhibitory concentration (IC50) in the test on MDA-MB-231 was 9.15 µM; in the test with MDA-MB-468, 6.3 µM. Further, the values for the inhibition in test [1] and in test [2] were 74.7% and 64.8%, respectively.
Take `Cc1cccc2nc(-c3cc(F)cc(Cc4n[nH]c(=O)c5ccccc45)c3)[nH]c(=O)c12`: the IC50 in the test on MDA-MB-231 and in the test on MDA-MB-468 was 15.4 µM each time. Besides, the inhibition in test [1] was determined as 76.4%; in test [2] it was 47.8%.
As to `COc1cc(OC)c2nc(-c3ccc(Cc4n[nH]c(=O)c5ccccc45)c(C)c3)[nH]c(=O)c2c1`, the IC50 was found to be 17.9 µM with MDA-MB-231 and 13 µM in the test on MDA-MB-468. Also, the inhibition in test [1] amounted to 55%; in test [2], 67.8%.
With `Cc1cccc2nc(-c3cccc(Cc4n[nH]c(=O)c5ccccc45)c3)[nH]c(=O)c12`, the IC50 in the test with MDA-MB-231 stood at 24.6 µM; in the test with MDA-MB-468, 15.4 µM. Moreover, the inhibition in test [1] was found to be 76.3%; in test [2], 49.6%.
On to `O=c1[nH]c(-c2ccc(Cc3n[nH]c(=O)c4ccccc34)cc2)nc2ccc(F)cc12`, for which the half-inhibitory concentration (IC50) in the test with MDA-MB-231 turned out to be 16.5 µM; with MDA-MB-468, 14 µM. For the same molecule, the inhibition in test [1] worked out at 58.2%; in test [2], 47.2%.
The matching figures for `Cc1cc(-c2nc3ccccc3c(=O)[nH]2)ccc1Cc1n[nH]c(=O)c2ccccc12`: 36 µM, 28.2 µM, 46.3% and 42.1%.
Consider `COc1cc(OC)c2c(=O)[nH]c(-c3cccc(Cc4n[nH]c(=O)c5ccc(Cl)cc45)c3)nc2c1`, for which the IC50 with MDA-MB-231 worked out at 15.5 µM; with MDA-MB-468, 12.8 µM. Further, the results for the inhibition in test [1] and in test [2] were 43.2% and 72.2%, respectively.
For `COc1ccc2nc(-c3ccc(Cc4n[nH]c(=O)c5ccccc45)c(OC)c3)[nH]c(=O)c2c1`, the half-maximal inhibitory concentration (IC50) with MDA-MB-231 stood at 33.6 µM; with MDA-MB-468 it was 28.3 µM. Moreover, the inhibition in test [1] was 36.7%; in test [2] it was 45.2%.
The corresponding values for `COc1ccc2nc(-c3ccc(Cc4n[nH]c(=O)c5ccccc45)cc3)[nH]c(=O)c2c1` are 19.1 µM, 16 µM, 57.4% and 45.5%.
The corresponding values for `O=c1[nH]c(-c2cc(Cc3n[nH]c(=O)c4ccccc34)ccc2F)nc2ccc(Cl)cc12` are 21.1 µM, 20.8 µM, 68.6% and 42.6%.
The corresponding values for `COc1ccc2nc(-c3ccc(Cc4n[nH]c(=O)c5ccccc45)c(F)c3)[nH]c(=O)c2c1` are 25.2 µM, 19.4 µM, 39.4% and 51.5%.
With `O=c1[nH]c(-c2cccc(Cc3n[nH]c(=O)c4ccccc34)c2)nc2ccccc12`, the figures for the IC50 in the test with MDA-MB-231 and with MDA-MB-468 were 21.3 µM and 16.2 µM, respectively. In addition, the inhibition in test [1] amounted to 82.4%; in test [2], 47.2%.
The corresponding values for `Cc1cc(-c2nc3ccc(Br)cc3c(=O)[nH]2)ccc1Cc1n[nH]c(=O)c2ccccc12` are 28.2 µM, 24.5 µM, 43.8% and 52.3%.
The matching figures for `COc1cc(-c2nc3cccc(C)c3c(=O)[nH]2)ccc1Cc1n[nH]c(=O)c2ccccc12`: greater than 40 µM, greater than 40 µM, 37.2% and 34.4%.
The corresponding values for `O=c1[nH]c(-c2cc(F)cc(Cc3n[nH]c(=O)c4ccccc34)c2)nc2ccccc12` are 17.7 µM, 14.2 µM, 84.5% and 45.5%.
In the case of `COc1ccc2nc(-c3cc(F)cc(Cc4n[nH]c(=O)c5ccccc45)c3)[nH]c(=O)c2c1`, the half-inhibitory concentration (IC50) in the test with MDA-MB-231 came to 15.3 µM; in the test on MDA-MB-468, 12.3 µM. The inhibition in test [1] was determined as 72.1%; in test [2], 51.3%.
For `COc1ccc2nc(-c3cc(Cc4n[nH]c(=O)c5ccccc45)ccc3F)[nH]c(=O)c2c1`, the IC50 in the test on MDA-MB-231 came to 22.8 µM; in the test on MDA-MB-468, 24.2 µM. Besides, the inhibition in test [1] worked out at 70.7%; in test [2] it was 41%.
`COc1cc(OC)c2nc(-c3cc(Cc4n[nH]c(=O)c5ccccc45)ccc3F)[nH]c(=O)c2c1`: the 50% inhibitory concentration (IC50) in the test on MDA-MB-231 was 22.1 µM; with MDA-MB-468, 18.6 µM. The inhibition in test [1] is 72%; in test [2] it was 47.5%.
The corresponding values for `COc1cc(OC)c2c(=O)[nH]c(-c3ccc(Cc4n[nH]c(=O)c5ccccc45)c(OC)c3)nc2c1` are 27.7 µM, 25.3 µM, 35.3% and 51%.
`O=c1[nH]c(-c2ccc(Cc3n[nH]c(=O)c4ccccc34)cc2)nc2ccccc12`: the concentration for half-maximal inhibition (IC50) in the test with MDA-MB-231 came out at 25 µM; in the test on MDA-MB-468, 25.4 µM. The inhibition in test [1] worked out at 63.8%; in test [2] it was 33%.
On to `O=c1[nH]c(-c2ccc(Cc3n[nH]c(=O)c4ccccc34)c(F)c2)nc2ccc(F)cc12`, for which the IC50 in the test with MDA-MB-231 was 22 µM; in the test on MDA-MB-468, 17.2 µM. Also, the results for the inhibition in test [1] and in test [2] were 38.2% and 53.3%, respectively.
The matching figures for `COc1ccc2nc(-c3cccc(Cc4n[nH]c(=O)c5ccccc45)c3)[nH]c(=O)c2c1`: 8.71 µM, 5.43 µM, 78.4% and 61.2%.
The corresponding values for `Cc1cccc2c(=O)[nH]c(-c3cc(Cc4n[nH]c(=O)c5ccccc45)ccc3F)nc12` are 38.2 µM, 35.6 µM, 61% and 31.2%.
The corresponding values for `O=c1[nH]c(-c2cc(F)cc(Cc3n[nH]c(=O)c4ccccc34)c2)nc2ccc(F)cc12` are 13.2 µM, 12.1 µM, 77.5% and 51.2%.
For `Cc1cccc2nc(-c3ccc(Cc4n[nH]c(=O)c5ccccc45)cc3)[nH]c(=O)c12`, the IC50 in the test with MDA-MB-231 was found to be 28.9 µM; in the test on MDA-MB-468 it was 24.1 µM. The inhibition stood at 52.6% in test [1] and 31.7% in test [2].
The matching figures for `O=c1[nH]c(-c2cc(Cc3n[nH]c(=O)c4ccccc34)ccc2F)nc2ccc(F)cc12`: 18.6 µM, 19.1 µM, 68.5% and 43.7%.
In the case of `O=c1[nH]nc(Cc2ccc(-c3nc4cccc(Cl)c4c(=O)[nH]3)cc2F)c2ccccc12`, the results for the IC50 in the test on MDA-MB-231 and with MDA-MB-468 were 22 µM and 21.2 µM, respectively. Also, the inhibition in test [1] was 38.5%; in test [2], 53.4%.
The matching figures for `O=c1[nH]c(-c2ccc(Cc3n[nH]c(=O)c4ccccc34)cc2)nc2ccc(Br)cc12`: 24.5 µM, 18.8 µM, 53.3% and 46%.
Regarding `COc1cc(-c2nc3ccccc3c(=O)[nH]2)ccc1Cc1n[nH]c(=O)c2ccccc12`, the concentration for half-maximal inhibition (IC50) in the test with MDA-MB-231 and with MDA-MB-468 was greater than 40 µM in each case. The values for the inhibition in test [1] and in test [2] were 46.5% and 31.3%, respectively.
Take `Cc1cc(-c2nc3ccc(F)cc3c(=O)[nH]2)ccc1Cc1n[nH]c(=O)c2ccccc12`: the concentration for half-maximal inhibition (IC50) amounted to 25.1 µM with MDA-MB-231 and 20.2 µM in the test on MDA-MB-468. The inhibition in test [1] was determined as 49.5%; in test [2] it was 54.2%.
The corresponding values for `Cc1cccc2nc(-c3ccc(Cc4n[nH]c(=O)c5ccccc45)c(F)c3)[nH]c(=O)c12` are greater than 40 µM, greater than 40 µM, 34.8% and 38.2%.
The corresponding values for `COc1cc(-c2nc3cccc(Cl)c3c(=O)[nH]2)ccc1Cc1n[nH]c(=O)c2ccccc12` are 35.1 µM, 34.7 µM, 33.9% and 43.3%.
The corresponding values for `O=c1[nH]nc(Cc2ccc(-c3nc4cccc(Cl)c4c(=O)[nH]3)cc2)c2ccccc12` are 21 µM, 15.4 µM, 58.5% and 48.9%.
Turning to `COc1cc(OC)c2c(=O)[nH]c(-c3ccc(Cc4n[nH]c(=O)c5ccccc45)cc3)nc2c1`, the IC50 with MDA-MB-231 is 17 µM; in the test on MDA-MB-468, 14.1 µM. Also, the results for the inhibition in test [1] and in test [2] were 59.2% and 58.2%, respectively.
The matching figures for `O=c1[nH]c(-c2ccc(Cc3n[nH]c(=O)c4ccccc34)c(F)c2)nc2ccccc12`: 31.5 µM, 29.7 µM, 47.2% and 35.1%.
As to `O=c1[nH]c(-c2cc(Cc3n[nH]c(=O)c4ccccc34)ccc2F)nc2ccc(Br)cc12`, the results for the IC50 in the test on MDA-MB-231 and in the test with MDA-MB-468 were 24.1 µM and 19.5 µM, respectively. Besides, the inhibition in test [1] came to 76.8%; in test [2], 39.5%.
